Measurements as given in patent US12281329B2, “Compositions and methods for immune cell modulation in adoptive immunotherapies” (Fate Therapeutics, Inc., priority 2016, dated 2025).

Legend:
SKOV-3 cells = assay: In vivo tumor clearing of luciferase-expressing SKOV-3 cells by modulated NK cells with Herceptin; set-up: species or system NSG mice
Description: In vivo tumor clearing using Modulated NK cells: NSG mice were irradiated with 300 rads one day prior to intraperitoneal transplant of 2×10^5 luciferase-expressing SKOV-3 cells. 5 days after transplant of the ovarian carcinoma cells, mice were either left untreated, treated with Herceptin only, or treated with Herceptin, IL-15, and NK cells cultured for 7 days with IL-15 and CHIR99021. Luciferase-expressing SKOV-3 cells were imaged on day 21 using the IVIS imaging system.
Moreover, the in vivo tumor clearance ability of GSK3i cultured NK cells using the process provided herein was also tested. NSG mice were irradiated with 300 rads one day prior to intraperitoneal transplant of luciferase-expressing SKOV-3 cells. 5 days after the ovarian carcinoma cell transplant, the mice were either left untreated, treated with Herceptin only, or treated with Herceptin, IL-15, and NK cells cultured for 7 days with IL-15 and CHIR99021. […]
The in vivo tumor clearance ability of GSK3i cultured NK cells using the process provided herein was then compared to overnight primed CD3/CD19 depleted PBMC, and CD3/CD19 depleted PBMC cultured for 7 days with IL-15 and DMSO. […] Luciferase-expressing SKOV-3 cells were quantified by measuring luciferase activity using the IVIS imaging system.

NK cells [1] = assay: Maintenance of modulated NK cell phenotype after transfer into NSG mice; type: in vivo
Protocol: The mice received only IL-15 with no GSK3i. It was shown that NK cells cultured in vitro with GSK3i for 7 days maintain their phenotypic changes in vivo for at least one week after being transferred and without the presence of the small molecule. CD57 remains high representing the maturity of the NK cells which was not the case when the cells were cultured without GSK3i (FIGS. 9A and 9B).

HER2+A549 cells = assay: NK cell Herceptin ADCC killing of A549 cells; type: cell-based, human; details: NK cells cultured with GSK3i for 7 days
NK cells [2] = assay: Feeder-free culture of CD3/CD19 depleted PBMC with IL-15 and GSK3 inhibitor: NK cell expansion and phenotype; type: cell-based, human
Protocol: NK Cell Isolation. Healthy adult donor blood was obtained from commercial sources or from GCRC core laboratory of Scripps Research Institute, La Jolla, CA Peripheral blood mononuclear cells (PBMC) were isolated by density gradient centrifugation using Ficoll-Paque PLUS (GE Healthcare: Life Sciences) and then depleted of B and T cells without culturing the PBMC using CD19 Microbeads (Miltenyi Biotec, #130-050-301) and CD3 Microbeads (Miltenyi Biotec, #130-050-101) within 24 to 36 hours according to manufacturer directions.
NK cell culture: CD3/CD19 depleted PBMC (0.5-1×10E6/mL) were cultured in BO medium (2:1 mixture of DMEM, (Corning Cell-Gro #10-017-CV) and Ham's F12 (Corning Cell-Gro #10-080-C) with 10% human AB serum (Valley Biomedical, #HP1022), 100 U/mL penicillin and 100 ug/mL streptomycin (Corning, 30-002-CI), 20 uM 2-mercaptoethanol (Sigma, M3148), 50 uM ethanolamine (Sigma, E0135), 10 ug/mL ascorbic acid (Sigma, A4544), and 1.6 ng/mL sodium selenite (Sigma, S5261). Cells were cultured for 7-8 days (up to four weeks) in medium containing 10 ng/mL recombinant human IL-15 (Life Technologies, PHC9154) with or without GSK3 inhibitor CHIR99021 (BioVision #1677-5), histone lysine methyltransferase inhibitor BIX 01294 (Tocris, 3364), TGF-β1 receptor inhibitor SB-431542 (BioVison, 1674-5), or human interferon alpha (R&D Systems, 11200-1). After culturing, cells were counted using trypan blue or by Cellometer (Nexcelom) and used for flow cytometry and functional assays. Flow cytometry was performed on a BD LSRFortessa and results were analyzed by FlowJo software. Commercially available antibodies to the following surface markers were used for flow cytometry: CD3, CD14, CD16, CD19, CD56, CD57 and NKG2C (BD Biosciences, Biolegend, or R&D Systems). Where indicated, K562 feeder cells were used. Where indicated other modulators and culture reagents were added.
One aspect of the present invention is to provide a method and a system to culture, expand and/or modulate NK cells for adoptive cell therapy. In some embodiments, the method and system for culturing, expanding and/or modulating NK cells is without the use of feeder cells, or feeder cell conditioned medium. Peripheral blood mononuclear cells (PBMC) were isolated from healthy adult donors. The isolated apheresis product (Day 0, pre-depletion; FIG. 2A) was T and B cell depleted using anti-CD19 and CD3 antibodies without pre-depletion culturing (Day 0, post-depletion; FIG. 2B). The post-depletion cell population was then cultured in a feeder free condition with the presence of recombinant human IL-15 (10 ng/mL) and 5 μM CHIR99021, a GSK3 inhibitor, for about 3 to 7 days.

[3] = tested on: K562 tumor cells and allogeneic PBMC; assay: Dual-target cytotoxicity assay, K562 tumor cells mixed with allogeneic PBMC; type: cell-based, human; details: GSK3i modulated NK cells; 3-4 NK cell donors per PBMC donor
Protocol: Cytotoxicity of GSK3i modulated NK cells against allogeneic PBMC was evaluated in combination with K562 tumor cells in a dual-target cytotoxicity assay. Percent specific killing in PBMC+K562+overnight primed NK cells or PBMC+K562+GSK3i modulated NK cells was measured.

[4] = 7 day culture with GSK3 inhibitor vs cultured without GSK3i
[5] = Day 7 GSK3i culture vs overnight primed

With `Cc1c[nH]c(-c2cnc(NCCNc3ccc(C#N)cn3)nc2-c2ccc(Cl)cc2Cl)n1` [CHIR99021] the “in vivo SKOV-3 ADCC killing (luciferase activity)” value (SKOV-3 cells; 100 ug Herceptin + 2.5×10^6 cells, vs overnight primed and 7 day IL-15 + DMSO) was “highly and consistently effective”, the “tumor-suppressive effects of Herceptin antibody treatment” value (SKOV-3 cells; NK cells cultured 7 days with IL-15 and CHIR99021, plus Herceptin and IL-15, imaged Day 21 post-transplant) was “enhances” and the “CD57 on NK cells from peripheral blood” value (NK cells [1]; 7 days after transfer of 7 day IL15+GSK3i cultured NK cells, mice received only IL-15) was “remains high”. For the same molecule, the “CD16 and NKG2C+/CD57+ on transferred NK cells” value (NK cells [1]; 7 days after transfer, without small molecule) was “maintained in vivo”, the “ADCC-mediated killing of A549 cells (rate and efficiency)” value (HER2+A549 cells) was “enhanced” and the “percentage of CD57+ cells in the total NK populations” value (NK cells [2]; 7 day culture with GSK3i vs 7 day without GSK3i) was “increased”. For the same molecule, the “CD57+ NK cell number, increase on average” value (NK cells [2]; [4]) was 7-8 fold, the “CD57+NKG2C+ NK cell number, increase on average” value (NK cells [2]; [4]) was 7-8 fold and the “NK cell (CD56+CD3−) percentage in population” value (NK cells [2]; Day 7, IL-15 10 ng/mL + 5 μM CHIR99021, feeder free, about 20% post-depletion Day 0) was “about 99%”. The “remaining T cells (CD56-CD3+) percentage in population” value (NK cells [2]; Day 7, IL-15 10 ng/mL + 5 μM CHIR99021, about 1% post-depletion) was 0.25%, the “cell number of CD57+ NK subset, increase on average” value (NK cells [2]; [5]) was 5-6 fold and the “cell number of CD57+NKG2C+ NK subset, increase on average” value (NK cells [2]; [5]) was 5-6 fold. For the same molecule, the “frequency of CD57+ cells in the culture” value (NK cells [2]; short term treatment, 16 hours, comparable to vehicle) was “did not generate a higher frequency” and the “percent specific killing of K562 versus allogeneic PBMC” value [3] was “selectively target those cells among normal cells”.
